Test systems include HCC-2998 colon; HOP-92 NSCLC; K-562 leukemia; MALME-3M melanoma; OVCAR-8 ovarian; SF-268 CNS; SK-MEL-2 melanoma.
Common to all, as to experiment: NCI-60 cell line screen, 48 h

Each structure is given as a SMILES string.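 Where inhibition never reached the appropriate level, the endpoint shown equals the highest concentration tested. Otherwise, values were interpolated linearly from a five-concentration, 48-hour dose response in 96-well plates. TGI denotes the concentration required for complete inhibition of growth.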 Where only a bound is given, the exact number is not on record here.

With `Cc1ccc(S(=O)(=O)Nn2c(S)c(C#N)c(-c3ccc([N+](=O)[O-])cc3)c(C#N)c2=O)cc1`, the TGI in the assay on HCC-2998 colon is > 100 µM; with HOP-92 NSCLC, > 100 µM; in the assay on K-562 leukemia, 53.2 µM; in the assay on MALME-3M melanoma, > 100 µM; with OVCAR-8 ovarian it was > 100 µM; with SF-268 CNS, > 100 µM. In the assay with SK-MEL-2 melanoma, the TGI was 80.1 µM.

Regarding `O=C(O)CC1OCC=C2CN3CCC45C6=CC(=O)C(=O)C([N+](=O)[O-])=C6NC4C1C2CC35` (centres undefined), the TGI in the assay with HCC-2998 colon, in the assay with HOP-92 NSCLC, in the assay on K-562 leukemia, in the assay on MALME-3M melanoma, in the assay on OVCAR-8 ovarian and with SF-268 CNS was > 100 µM each time. In the assay on SK-MEL-2 melanoma, the TGI was > 100 µM.

Consider `CCOc1cc2c(cc1OC(C)=O)C(=O)CC[C@H]1C3CC[C@H](OC(C)=O)[C@@]3(C)CC[C@H]21` (some centres undefined), for which the TGI in the assay on HCC-2998 colon, in the assay on HOP-92 NSCLC, with K-562 leukemia, with MALME-3M melanoma, with OVCAR-8 ovarian and in the assay with SF-268 CNS was > 100 µM in each case. The TGI in the assay on SK-MEL-2 melanoma is > 100 µM.

As to `c1ccc(C2OCC(OC3CCCCO3)CO2)cc1` (centres undefined), the TGI in the assay with HCC-2998 colon, in the assay on HOP-92 NSCLC, in the assay on K-562 leukemia, in the assay with MALME-3M melanoma, with OVCAR-8 ovarian and in the assay with SF-268 CNS was > 100 µM in each case. Also, in the assay on SK-MEL-2 melanoma, the TGI is > 100 µM.

For the molecule `CC(C)C/C=C/C1=NN(c2cccc(S(=O)(=O)O)c2)C2(C1)SCC(=O)N2c1nc2ccccc2s1` (centres undefined), the TGI with HCC-2998 colon, in the assay on HOP-92 NSCLC, in the assay with K-562 leukemia, with MALME-3M melanoma, in the assay with OVCAR-8 ovarian and in the assay on SF-268 CNS was > 100 µM throughout. Further, the TGI in the assay with SK-MEL-2 melanoma was > 100 µM.

Turning to `NC(=O)NC(=O)c1cccc(NC(=O)CF)c1`, the TGI in the assay on HCC-2998 colon, in the assay on HOP-92 NSCLC, in the assay on K-562 leukemia, in the assay with MALME-3M melanoma, with OVCAR-8 ovarian and in the assay with SF-268 CNS was > 100 µM in each case. The TGI with SK-MEL-2 melanoma was > 100 µM.

With `O=C1NC(=O)C(COCc2ccccc2)C2=C1SCCC2` (centres undefined), the TGI in the assay on HCC-2998 colon, in the assay with HOP-92 NSCLC, in the assay on K-562 leukemia, in the assay on MALME-3M melanoma, in the assay with OVCAR-8 ovarian and with SF-268 CNS was > 100 µM in each case. Besides, the TGI with SK-MEL-2 melanoma is > 100 µM.

In the case of `COC(=O)[C@@]12C(=O)C(C)C(=O)[C@]1(C)C(C)=C[C@H]1[C@]3(C=O)CC[C@H](OC(C)=O)C(C)(C)[C@H]3CC[C@@]12C` (some centres undefined), the TGI in the assay on HCC-2998 colon, in the assay with HOP-92 NSCLC, with K-562 leukemia, with MALME-3M melanoma, with OVCAR-8 ovarian and in the assay with SF-268 CNS was > 100 µM throughout. Moreover, in the assay with SK-MEL-2 melanoma, the TGI was > 100 µM.

`COc1cccc2c1C(=O)c1ccc3cc(CCl)cc(O)c3c1C2=O`: the TGI was 1.46 µM in the assay on HCC-2998 colon; 1.73 µM in the assay with HOP-92 NSCLC; 2.49 µM with K-562 leukemia; 0.515 µM with MALME-3M melanoma; 0.612 µM in the assay with OVCAR-8 ovarian; 1.42 µM in the assay with SF-268 CNS. Further, the TGI in the assay with SK-MEL-2 melanoma turned out to be 1.1 µM.

Regarding `O=C1Nc2ccccc2/C1=C/c1c(Cl)[nH]c2ccc(O)cc12`, the TGI is 24.2 µM with HCC-2998 colon; 45 µM in the assay with HOP-92 NSCLC; 17.1 µM in the assay on K-562 leukemia; 15.7 µM with MALME-3M melanoma; 12.8 µM in the assay with OVCAR-8 ovarian; > 43.7 µM with SF-268 CNS. This molecule showed a TGI with SK-MEL-2 melanoma of 12.7 µM.

`c1ccc2c(c1)nc1n2C2CCC(C2)N1` (centres undefined): the TGI in the assay with HCC-2998 colon, in the assay with HOP-92 NSCLC, in the assay with K-562 leukemia, in the assay on MALME-3M melanoma, in the assay on OVCAR-8 ovarian and in the assay on SF-268 CNS was > 10 µM each time. The TGI in the assay with SK-MEL-2 melanoma was > 10 µM.

With `CCOC(=O)/C=C(\C(=O)OCC)n1ccc(=O)n(CC(=O)OCC)c1=O`, the TGI in the assay on HCC-2998 colon stood at 32.2 µM; in the assay with HOP-92 NSCLC it was 3.06 µM; with K-562 leukemia, 4 µM; with MALME-3M melanoma, 5.41 µM; in the assay on OVCAR-8 ovarian it was 14.3 µM; in the assay with SF-268 CNS, 41.1 µM. Moreover, in the assay with SK-MEL-2 melanoma, the TGI is 29.1 µM.

In the case of `C=C1C(=O)O[C@H]2[C@H]3O[C@@H](C[C@@H]12)[C@@]1(C)CC[C@H](O1)C(C)=CCC[C@H]3C`, the TGI amounted to 3.25 µM with HCC-2998 colon; 3.45 µM in the assay with HOP-92 NSCLC; 3.09 µM in the assay with K-562 leukemia; 3.15 µM in the assay on MALME-3M melanoma; 3.1 µM in the assay on OVCAR-8 ovarian; 2.95 µM in the assay with SF-268 CNS. Moreover, the TGI in the assay with SK-MEL-2 melanoma was determined as 4.11 µM.

Take `Cn1c(=O)c2c(ncn2CCCCOc2ccc3c(c2)[n+]([O-])nc(N)[n+]3[O-])n(C)c1=O`: the TGI in the assay with HCC-2998 colon is 52.6 µM; in the assay with HOP-92 NSCLC, 33.4 µM; with K-562 leukemia it was > 100 µM; in the assay on MALME-3M melanoma, > 100 µM; in the assay on OVCAR-8 ovarian it was > 100 µM; in the assay on SF-268 CNS it was > 100 µM. Besides, in the assay on SK-MEL-2 melanoma, the TGI is > 100 µM.

For `CC(=O)N(CN1C(=O)CCC1C(=O)O)c1cccc(O)c1` (centres undefined), the TGI with HCC-2998 colon, in the assay with HOP-92 NSCLC, with K-562 leukemia, in the assay on MALME-3M melanoma, in the assay with OVCAR-8 ovarian and in the assay on SF-268 CNS was > 100 µM each time. For the same molecule, the TGI in the assay on SK-MEL-2 melanoma was > 100 µM.

As for `COc1cc(/C=C2\C(=O)N(Cc3ccccc3)C(c3ccccc3)S2(=O)=O)cc(OC)c1OC` (centres undefined), the TGI with HCC-2998 colon, in the assay on HOP-92 NSCLC, in the assay on K-562 leukemia, with MALME-3M melanoma, in the assay with OVCAR-8 ovarian and in the assay on SF-268 CNS was > 100 µM in each case. In addition, in the assay with SK-MEL-2 melanoma, the TGI is > 100 µM.

As to `CCOP(=O)(OCC)C1=C(c2ccccc2)OC(N)=C(C#N)C1c1ccc(Cl)cc1` (centres undefined), the TGI with HCC-2998 colon, in the assay with HOP-92 NSCLC, in the assay on K-562 leukemia, with MALME-3M melanoma, in the assay on OVCAR-8 ovarian and in the assay with SF-268 CNS was > 100 µM in each case. For the same molecule, the TGI in the assay on SK-MEL-2 melanoma is > 100 µM.

Values taken from PubChem BioAssay (NCI).
